Calls of active or inactive are those of the source. The calls are words filed in the database; no cut-off is given here.
biological target: SUMO E1/E2 (Homo sapiens) (UniProt Q9UBE0+Q9UBT2+P63279); assay: Inhibition of purified SUMO E1/E2 (unknown origin)-mediated conjugation of His6-SUMO-1 to fluorescent peptide FL-AR at 30 uM after 90 mins by microfluidic electrophoretic mobility shift assay; format: protein-complex assay

Row | inhibition | Structure (SMILES)
1 | inactive | O=c1cc(-c2ccccc2O)oc2c(O)c(O)ccc12
2 | Active | O=c1cc(-c2ccc(O)c(O)c2O)oc2ccccc12
3 | Active | O=C(/C=C(\O)c1ccccc1O)c1ccc(O)c(O)c1O

From ChEMBL document CHEMBL3112451, “Synthesis of 2',3',4'-trihydroxyflavone (2-D08), an inhibitor of protein sumoylation” (Bioorg Med Chem Lett, 2014)
